Tests used:
[1] = target: recombinant firefly luciferase (Photinus pyralis, UniProt P08659); experiment: biochemical; conditions: dose response; for Emax: maximum inhibition, read-out: rLuc inhibition dose response: Maximum inhibition (%); for IC50: read-out: rLuc inhibition dose response: IC50
[2] = tested on: HepG2-A16-CD81 hepatocytes; experiment: HepG2 cytotoxicity screening (CellTiter-Glo); conditions: for HepG2 cytotoxicity 12pt dose response: Maximum inhibition (%): 12pt dose response
[3] = HepG2 cytotoxicity screening (CellTiter-Glo); conditions: human, uninfected HepG2-A16-CD81 (EGFP) hepatocytes
[4] = tested on: P. berghei liver stage (PbLuc); experiment: P. berghei luciferase liver stage (PbLuc) assay in HepG2-A16-CD81 hepatocytes; type: cell-based, Plasmodium berghei; conditions: Plasmodium berghei; for IC50: HepG2-A16-CD81, 12pt dose response, read-out: PbLuc 12pt dose response: IC50; for Emax: HepG2-A16-CD81, 48 h, 12pt dose response, maximum inhibition

Sequence of recombinant firefly luciferase (P08659 whole entry): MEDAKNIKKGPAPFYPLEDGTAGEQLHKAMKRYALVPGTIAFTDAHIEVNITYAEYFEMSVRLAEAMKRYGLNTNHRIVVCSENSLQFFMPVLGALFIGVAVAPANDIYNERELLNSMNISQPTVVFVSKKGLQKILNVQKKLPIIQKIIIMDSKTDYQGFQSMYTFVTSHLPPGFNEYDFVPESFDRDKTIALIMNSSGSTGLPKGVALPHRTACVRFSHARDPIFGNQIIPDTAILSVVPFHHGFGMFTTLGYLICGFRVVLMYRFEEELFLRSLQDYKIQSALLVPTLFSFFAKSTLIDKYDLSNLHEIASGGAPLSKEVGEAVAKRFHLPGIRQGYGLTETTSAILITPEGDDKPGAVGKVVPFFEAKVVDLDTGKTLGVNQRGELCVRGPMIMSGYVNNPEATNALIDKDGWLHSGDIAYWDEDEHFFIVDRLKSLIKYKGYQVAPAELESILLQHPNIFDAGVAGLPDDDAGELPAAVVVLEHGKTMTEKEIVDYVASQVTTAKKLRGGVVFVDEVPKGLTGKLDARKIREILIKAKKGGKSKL

SMILES	Emax [1] [%]	IC50 [1] [µM]	HepG2 cytotoxicity 12pt dose response: Maximum inhibition (%) [2] [%]	IC50 [3] [µM]	inhibition at 2 µM [3] [%]	IC50 [4] [µM]	Emax [4] [%]	HepG2 Cytotoxicity primary screen (2uM): % Inhibition [2] [%]
Fc1ccc(CN2CCCC(c3cc4ncccc4[nH]3)C2)cc1 (stereo not shown) [UCSD-0798856]	23.6	> 25	-0.046	> 25	12	8.45	78.4	
Cn1cncc1CN1CCCC1c1cncc(Oc2ccc(Cl)cc2)n1 (stereo not shown) [UCSD-0800730]	3.17	> 25	38.2	> 25		12.9	92.6	0.83
Cc1ncc(CN2CCOC(c3ccc(-c4ccccc4F)cn3)C2)s1 (stereo not shown) [UCSD-0800928]	19.3	> 25	36.5	> 25		11.1	85.7	-6.23
Cc1ccc(Nc2nccc(C3CCN(CC(N)=O)C3)n2)nc1 (stereo not shown) [UCSD-0800962]	81.5	0.0401	15.1	> 25		0.00289		
COc1cc(C)c(CN2CCc3nc4ccsc4c(=O)n3CC2)cc1C [UCSD-0801369]	5.88	> 25	25.1	> 25	0	8.88	95.5	
O=c1c2sccc2nc2n1CCN(Cc1ccccc1C(F)(F)F)CC2 [UCSD-0801403]	18.4	> 25	19.7	> 25	0	6.77	95.7	
CSc1ccc(CN2C[C@@H]3CC[C@@](O)(c4ccc(C)cn4)[C@@H]3C2)cc1 [UCSD-0801744]	38.3	> 25	9.86	> 25	2.45	23	66.8	
Clc1ccc(-c2ccc(C3CNCCO3)nc2)cc1 (stereo not shown) [UCSD-0802213]	95.9	0.0623	-1.02	> 25	18.1	< 0.000141		
COc1ccc(-c2ccc(C3CNCCO3)nc2)cc1 (stereo not shown) [UCSD-0802458]	89.6	0.0276	-13.4	> 50	23.7	< 0.000141	94	
Cc1ccc(-c2ccc(C3CNCCO3)nc2)cc1 (stereo not shown) [UCSD-0802459]	88.3	0.00428	48.6	> 50	25.3	< 0.000141	98.6	
Cc1cc(-c2cnc(NCc3cccnc3)nc2C(C)(C)C)on1 [UCSD-0802583]	6.14	> 25	45.3	> 25		10.1	86.4	-8.43
CC(C)(C)OC(=O)N1CCCN(Cc2ccon2)c2ccccc21 [UCSD-0805052]	18.4	> 25	13.5	> 25	10.4	8.56	93.5	
CCN1CC(CN(C)c2cc(C)nc(N)n2)Oc2ccccc21 (stereo not shown) [UCSD-0806866]	15.4	> 25	73.7	20.6	-3.08	5.15	93.5	
COC(=O)CSCc1noc(-c2ccc(C)cc2)n1 [UCSD-0807935]	62.8	> 25	3.73	> 25	-4.01	0.0335	77.1	
N#Cc1c(Cl)nsc1NCc1cccnc1OCC(F)(F)F [UCSD-0808444]	43.9	> 25	-0.683	> 25		14.9	69.5	4.29
CCNc1ccnc(CN2CCCC2C(=O)Nc2nccs2)c1 (stereo not shown) [UCSD-0809356]	21.2	> 25	2.09	> 25		4.46		1.30
CC(C(=O)Nc1sccc1C(N)=O)N(C)CCOc1ccccc1 (stereo not shown) [UCSD-0809872]	17.7	> 50	7.13	> 25	5.59	0.787	95.7	
CC(C)(C)n1ncc2c1CCCC2NCc1ccc2c(c1)OCCO2 (stereo not shown) [UCSD-0811309]	85	15	2.92	> 25	-4.43	8.69	87	
NC(=O)c1ccc(N2CCCCC2)c(NC(=O)c2ccc(F)cc2F)c1 [UCSD-0811362]	19.1	> 25	5.59	> 25	2.8	8.87	81	
Cc1cn2c(n1)C(CNCC1=Cc3ccccc3OC1)CCC2 (stereo not shown) [UCSD-0812993]	66.8	> 25	24.6	> 25		> 2.78	93.1	-0.92
Cc1nc(C(=O)NC2CCN(CCOc3ccc(Br)cc3)CC2)cs1 [UCSD-0818164]	32.1	> 25	35.2	> 25		13.6	98.3	17.63
Cc1ncc(C(=O)NC2CCN(CCOc3ccc(Br)cc3)CC2)s1 [UCSD-0818166]	32.8	> 25	7.96	> 25	1.78	15.8	96.5	
CN1CCOC(C(=O)Nc2ccc3c(c2)nc(C(C)(C)C)n3C)C1 (stereo not shown) [UCSD-0818200]	88.4	13.4	0.658	> 25		0.00222		
N#Cc1c(Cl)nsc1NCC1(c2ccccc2)CCC1 [UCSD-0818294]	16.9	> 25	34.3	> 25		13.2	98.3	11.95
O=C(CN1CCCC(c2ccn[nH]2)C1)Nc1nc2c(s1)CCCC2 (stereo not shown) [UCSD-0818422]	6.65	> 25	8.88	> 25		4.53	95.9	7.13
